Experimental data as given in ChEMBL document CHEMBL1201862, “PubChem BioAssay data set” (2004).
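Where inhibition never reached the appropriate level, the endpoint shown equals the highest concentration tested. Otherwise, values were interpolated linearly from a five-concentration, 48-hour dose response in 96-well plates. The concentration for 50% growth inhibition is given as GI50.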 Activity calls are given as the source filed them. Rule as the data show it: active = GI50 up to about 1.1 µM and inactive = higher.

Experiments:
Experiment in all cases: NCI tumour cell line growth inhibition, 48 h
786-0 = tested on: 786-0
A498 = tested on: A498
A549 = tested on: A549
ACHN = tested on: ACHN
CAKI-1 = tested on: CAKI-1
CCRF-CEM = tested on: CCRF-CEM
COLO 205 = tested on: COLO 205
DLD-1 = tested on: DLD-1
DMS-114 = tested on: DMS-114
DMS-273 = tested on: DMS-273
EKVX = tested on: EKVX
HCT-116 = tested on: HCT-116
HCT-15 = tested on: HCT-15
HL-60 = tested on: HL-60
HOP-18 = tested on: HOP-18
HOP-62 = tested on: HOP-62
HOP-92 = tested on: HOP-92
HT-29 = tested on: HT-29
IGROV-1 = tested on: IGROV-1
K562 = tested on: K562
KM-20L2 = tested on: KM-20L2
KM12 = tested on: KM12
LOX IMVI = tested on: LOX IMVI
LXFL 529 = tested on: LXFL 529
M14 = tested on: M14
M19-MEL = tested on: M19-MEL
MOLT-4 = tested on: MOLT-4
Malme-3M = tested on: Malme-3M
NCI-H226 = tested on: NCI-H226
NCI-H23 = tested on: NCI-H23
NCI-H460 = tested on: NCI-H460
NCI-H522 = tested on: NCI-H522
OVCAR-3 = tested on: OVCAR-3
OVCAR-4 = tested on: OVCAR-4
OVCAR-5 = tested on: OVCAR-5
OVCAR-8 = tested on: OVCAR-8
RPMI-8226 = tested on: RPMI-8226
RXF 393 = tested on: RXF 393
RXF 631 = tested on: RXF 631
SF-268 = tested on: SF-268
SF-295 = tested on: SF-295
SF-539 = tested on: SF-539
SK-MEL-28 = tested on: SK-MEL-28
SK-MEL-2 = tested on: SK-MEL-2
SK-MEL-5 = tested on: SK-MEL-5
SK-OV-3 = tested on: SK-OV-3
SN12C = tested on: SN12C
SNB-75 = tested on: SNB-75
SNB-78 = tested on: SNB-78
SR = tested on: SR
SW-620 = tested on: SW-620
TK-10 = tested on: TK-10
U-251 = tested on: U-251
UACC-257 = tested on: UACC-257
UACC-62 = tested on: UACC-62
UO-31 = tested on: UO-31
XF498 = tested on: XF498

Measured: GI50

O=c1c2cccc3cccc(c4n1CCCN=4)c32
inactive: 786-0 > 100 µM | A498 > 100 µM | A549 > 100 µM | ACHN > 100 µM | CAKI-1 > 100 µM | CCRF-CEM 41.6 µM | COLO 205 > 100 µM | DLD-1 > 100 µM | DMS-114 > 100 µM | DMS-273 > 100 µM | EKVX > 100 µM | HCT-116 31 µM | HL-60 47.5 µM | HOP-18 > 100 µM | HOP-62 > 100 µM | HOP-92 > 100 µM | HT-29 > 100 µM | IGROV-1 > 100 µM | K562 > 100 µM | KM-20L2 > 100 µM | KM12 > 100 µM | LOX IMVI 20.1 µM | LXFL 529 > 100 µM | M14 > 100 µM | M19-MEL > 100 µM | MOLT-4 35.7 µM | Malme-3M > 100 µM | NCI-H226 > 100 µM | NCI-H23 > 100 µM | NCI-H460 > 100 µM | NCI-H522 > 100 µM | OVCAR-3 > 100 µM | OVCAR-4 > 100 µM | OVCAR-5 88.1 µM | OVCAR-8 > 100 µM | RPMI-8226 > 100 µM | RXF 393 > 100 µM | RXF 631 > 100 µM | SF-268 > 100 µM | SF-295 > 100 µM | SF-539 > 100 µM | SK-MEL-28 > 100 µM | SK-MEL-2 > 100 µM | SK-MEL-5 > 100 µM | SK-OV-3 > 100 µM | SN12C > 100 µM | SNB-75 > 100 µM | SNB-78 > 100 µM | SR 31.3 µM | SW-620 92.5 µM | TK-10 47.5 µM | U-251 > 100 µM | UACC-257 > 100 µM | UACC-62 > 100 µM | UO-31 80.4 µM | XF498 > 100 µM
> 100 µM: HCT-15
